Measurements published in ChEMBL document CHEMBL1155618, “Junceellolides E-G, new briarane diterpenes from the West Pacific Ocean gorgonian Junceella fragilis” (J Nat Prod, 2000).
Calls of active or inactive are those of the source.

Legend:
Type in all cases: functional, cell-based
P388 = assay: Cytotoxicity against mouse P388 cells
A549 = assay: Cytotoxicity against human A549 cells
HT-29 = assay: Cytotoxicity against human HT29 cells

Measured: Activity

CCC(=O)O[C@@H]1CC/C(C)=C\[C@@H]2OC(=O)[C@H](C)[C@@]2(O)[C@H](OC(C)=O)[C@H]2[C@]3(CC[C@H](OC(C)=O)[C@]12C)CO3
inactive: all assays above

C=C1CC[C@H](OC(C)=O)[C@@]2(C)[C@H]1[C@@H](OC(C)=O)[C@@]1(O)[C@H](/C=C(/C)CC[C@H]2OC(C)=O)OC(=O)[C@@H]1C
inactive: all assays above

C=C1CC[C@H](OC(C)=O)[C@@]2(C)[C@H]1[C@@H](OC(C)=O)[C@@]1(O)[C@H](/C=C(/C)CC[C@H]2OC(=O)CC)OC(=O)[C@@H]1C
inactive: all assays above

CC(=O)O[C@@H]1[C@@H]2[C@@](C)([C@H](O)CC/C(C)=C\[C@@H]3OC(=O)[C@H](C)[C@]31O)[C@@H](O)CC[C@]2(C)O
inactive: all assays above
